Reference: paper PMC8776995 (Frontiers in Chemistry, 2022)
Where “and” joins values, the source holds several entries; their conditions need not be identical. Equal entries are not always repeated.

What was measured:
A549 cells = test: CCK-8 antiproliferation assay, A549; conditions: for Inhibitory efficacy: A549 cells
Experimental: (§1) The compounds were dissolved in DMSO to make a 20 μM stock solution and diluted to the concentration of working solutions with complete growth medium before administration.
(§2) Cells were seeded in 96-well plates: 3,000–5,000 cells/well in 100 ul. One day after seeding, the test compounds at concentration between 1.0 and 16.0 μ M or 0.1% DMSO (as control) were added to cells in triplicate. 48 h later, CCK-8 was added and incubated the plate for 1–4 h in the incubator. The absorbance at 450 nm were measured using a microplate reader (Bio-Tek).

PC-9 cells = test: CCK-8 antiproliferation assay, PC-9; conditions: for Inhibitory efficacy: single repeats (Repeat 1-3), given as fraction
Experimental: as §1, §2

H460 cells = test: CCK-8 antiproliferation assay, H460; conditions: for Inhibitory efficacy: H460 cells
H1975 cells = test: CCK-8 antiproliferation assay, H1975; conditions: for Inhibitory efficacy: H1975 cells
wild-type EGFR = wild-type EGFR (Homo sapiens, UniProt P00533); test: EGFR kinase assay (ELISA); conditions: for A450: raw ELISA absorbance
wild-type EGFR, sequence (P00533 25-1210): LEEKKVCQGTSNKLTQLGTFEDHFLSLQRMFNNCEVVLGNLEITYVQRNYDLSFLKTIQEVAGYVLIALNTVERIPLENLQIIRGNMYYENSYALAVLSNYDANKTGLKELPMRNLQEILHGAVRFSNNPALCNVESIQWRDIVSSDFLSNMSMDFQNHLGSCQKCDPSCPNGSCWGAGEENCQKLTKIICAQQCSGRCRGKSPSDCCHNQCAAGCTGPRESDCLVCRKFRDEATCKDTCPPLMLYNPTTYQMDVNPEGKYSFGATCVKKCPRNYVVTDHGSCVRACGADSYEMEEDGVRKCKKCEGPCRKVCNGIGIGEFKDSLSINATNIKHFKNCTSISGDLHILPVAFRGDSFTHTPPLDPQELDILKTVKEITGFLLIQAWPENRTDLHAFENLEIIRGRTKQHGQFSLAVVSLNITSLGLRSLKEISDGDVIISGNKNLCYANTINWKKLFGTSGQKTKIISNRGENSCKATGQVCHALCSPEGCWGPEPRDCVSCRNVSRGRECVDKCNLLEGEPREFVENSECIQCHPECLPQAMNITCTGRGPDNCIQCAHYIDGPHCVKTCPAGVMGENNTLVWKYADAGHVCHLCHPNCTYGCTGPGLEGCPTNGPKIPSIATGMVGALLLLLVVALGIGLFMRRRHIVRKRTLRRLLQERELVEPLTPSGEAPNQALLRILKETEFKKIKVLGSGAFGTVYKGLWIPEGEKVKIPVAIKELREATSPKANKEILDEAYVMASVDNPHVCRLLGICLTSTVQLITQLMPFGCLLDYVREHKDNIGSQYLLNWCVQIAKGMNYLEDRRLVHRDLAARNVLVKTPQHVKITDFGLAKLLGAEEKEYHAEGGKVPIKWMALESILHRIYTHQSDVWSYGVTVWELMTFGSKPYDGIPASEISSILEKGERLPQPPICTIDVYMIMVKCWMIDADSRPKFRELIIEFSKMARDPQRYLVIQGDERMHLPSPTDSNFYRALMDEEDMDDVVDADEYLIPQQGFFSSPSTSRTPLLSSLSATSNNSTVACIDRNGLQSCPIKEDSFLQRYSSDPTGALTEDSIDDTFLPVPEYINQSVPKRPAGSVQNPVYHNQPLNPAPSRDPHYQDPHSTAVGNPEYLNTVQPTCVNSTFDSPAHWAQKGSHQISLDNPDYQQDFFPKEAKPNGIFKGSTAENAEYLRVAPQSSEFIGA

[1] = 4uM, given as fraction, Repeat 1-3
[2] = 8uM, given as fraction, Repeat 1-3
[3] = 16uM, given as fraction, Repeat 1-3

IC50 (A549 cells; Homo sapiens, A549, 48 h, read-out: IC50 (μM) A549, CCK-8, 48 h, average ± SD of three independent experiments): 5.75 ± 0.48 µM
IC50 (PC-9 cells; Homo sapiens, PC-9, 48 h, read-out: IC50 (μM) PC-9): 7.71 ± 1.15 µM
IC50 (H460 cells; Homo sapiens, NCI-H460, 48 h, read-out: IC50 (μM) H460, CCK-8, 48 h, average ± SD of three independent experiments): 10.9 ± 0.39 µM
IC50 (H1975 cells; Homo sapiens, NCI-H1975, 48 h, read-out: IC50 (μM) H1975, CCK-8, 48 h, average ± SD of three independent experiments): 15.3 ± 1.55 µM
melting point: 113 to 116 °C
IC50 (wild-type EGFR; IC50 (μM) EGFR, ELISA, 3 μmol/L ATP): 32.5 µM
Inhibition (wild-type EGFR; concentration 0.03 nM, one value per replicate column, 3e-05 µM): 19.0252 and 4.409
Inhibition (wild-type EGFR; concentration 0.3 nM, one value per replicate column, 0.0003 µM): 9.134
inhibition at 0.003 µM (wild-type EGFR; concentration 3 nM, one value per replicate column): 19.8%
Inhibition (wild-type EGFR; concentration 3 nM, one value per replicate column, 0.003 µM): 15.5906
inhibition at 0.03 µM (wild-type EGFR; concentration 30 nM, one value per replicate column): 23.4%
Inhibition (wild-type EGFR; concentration 30 nM, one value per replicate column, 0.03 µM): 15.748
inhibition at 0.3 µM (wild-type EGFR; concentration 300 nM, one value per replicate column): 27%
Inhibition (wild-type EGFR; concentration 300 nM, one value per replicate column, 0.3 µM): 20.1575
inhibition at 3 µM (wild-type EGFR; concentration 3000 nM, one value per replicate column): 29.6%
Inhibition (wild-type EGFR; concentration 3000 nM, one value per replicate column, 3 µM): 27.7165
inhibition at 30 µM (wild-type EGFR; concentration 30000 nM, one value per replicate column): 60.1%
Inhibition (wild-type EGFR; concentration 30000 nM, one value per replicate column, 30 µM): 60
A450 (wild-type EGFR; concentration 0.0001 nM): 0.901 and 0.865
A450 (wild-type EGFR; concentration 0.03 nM): 0.78 and 0.837
A450 (wild-type EGFR; concentration 0.3 nM): 0.775 and 0.807
A450 (wild-type EGFR; concentration 3 nM): 0.775 and 0.766
A450 (wild-type EGFR; concentration 30 nM): 0.752 and 0.765
A450 (wild-type EGFR; concentration 300 nM): 0.729 and 0.737
A450 (wild-type EGFR; concentration 3000 nM): 0.713 and 0.689
A450 (wild-type EGFR; concentration 30000 nM): 0.519 and 0.484
SMILES: COCCOc1cc2ncnc(Nc3cccc(-c4cn(-c5ccccc5C(F)(F)F)nn4)c3)c2cc1OCCOC [e16, [6,7-Bis-(2-methoxy-ethoxy)-quinazolin-4-yl]-{3-[1-(2-trifluoromethyl-phenyl)-1H-[1,2,3]triazol-4-yl]-phenyl}-amine]
Inhibitory efficacy (A549 cells; 1uM, given as fraction, Repeat 1-3): 0.2305 and 0.3107
Inhibitory efficacy (A549 cells; 2uM, given as fraction, Repeat 1-3): 0.2917 and 0.3288
Inhibitory efficacy (A549 cells; [1]): 0.4966 and 0.48
Inhibitory efficacy (A549 cells; [2]): 0.5015 and 0.5395
Inhibitory efficacy (A549 cells; [3]): 0.6478 and 0.6577
inhibition at 1 µM (A549 cells; Homo sapiens, A549, read-out: Inhibitory efficacy, A549 cells, 1uM, given as fraction, Repeat 1-3): 15.9%
inhibition at 2 µM (A549 cells; Homo sapiens, A549, read-out: Inhibitory efficacy, A549 cells, 2uM, given as fraction, Repeat 1-3): 32.3%
inhibition at 4 µM (A549 cells; Homo sapiens, A549, read-out: Inhibitory efficacy, A549 cells, 4uM, given as fraction, Repeat 1-3): 54.2%
inhibition at 8 µM (A549 cells; Homo sapiens, A549, read-out: Inhibitory efficacy, A549 cells, 8uM, given as fraction, Repeat 1-3): 54.2%
inhibition at 16 µM (A549 cells; Homo sapiens, A549, read-out: Inhibitory efficacy, A549 cells, 16uM, given as fraction, Repeat 1-3): 64%
inhibition at 4 µM (PC-9 cells; Homo sapiens, PC-9, read-out: Inhibitory efficacy, PC-9, 4uM, single repeats (Repeat 1-3), given as fraction): 49.1%
inhibition at 8 µM (PC-9 cells; Homo sapiens, PC-9, read-out: Inhibitory efficacy, PC-9, 8uM, single repeats (Repeat 1-3), given as fraction): 56.9%
inhibition at 16 µM (PC-9 cells; Homo sapiens, PC-9, read-out: Inhibitory efficacy, PC-9, 16uM, single repeats (Repeat 1-3), given as fraction): 60.8%
Inhibitory efficacy (PC-9 cells; PC-9, 4uM, 4 µM): 0.4427 and 0.4497
Inhibitory efficacy (PC-9 cells; PC-9, 8uM, 8 µM): 0.7173 and 0.5415
Inhibitory efficacy (PC-9 cells; PC-9, 16uM, 16 µM): 0.5494 and 0.5275
Inhibitory efficacy (H460 cells; [1]): 0.2156 and 0.191
Inhibitory efficacy (H460 cells; [2]): 0.4491 and 0.447
Inhibitory efficacy (H460 cells; [3]): 0.6066 and 0.6034
inhibition at 4 µM (H460 cells; Homo sapiens, NCI-H460, read-out: Inhibitory efficacy, H460 cells, 4uM, given as fraction, Repeat 1-3): 21.3%
inhibition at 8 µM (H460 cells; Homo sapiens, NCI-H460, read-out: Inhibitory efficacy, H460 cells, 8uM, given as fraction, Repeat 1-3): 49.5%
inhibition at 16 µM (H460 cells; Homo sapiens, NCI-H460, read-out: Inhibitory efficacy, H460 cells, 16uM, given as fraction, Repeat 1-3): 57.3%
Inhibitory efficacy (H1975 cells; [2]): 0.3646 and 0.348
Inhibitory efficacy (H1975 cells; [3]): 0.506 and 0.5045
inhibition at 8 µM (H1975 cells; Homo sapiens, NCI-H1975, read-out: Inhibitory efficacy, H1975 cells, 8uM, given as fraction, Repeat 1-3): 44%
inhibition at 16 µM (H1975 cells; Homo sapiens, NCI-H1975, read-out: Inhibitory efficacy, H1975 cells, 16uM, given as fraction, Repeat 1-3): 48%
